Source: PMC3284191 (Journal of Agricultural and Food Chemistry, 2012)

Biological target: β-galactosidase LacZ from L. bulgaricus (nontagged) (Lactobacillus delbrueckii, UniProt Q1G9Z4)
Assay: inhibition of oNPG hydrolysis, nonlinear regression
Format: biochemical
Conditions: read-out: nontagged LacZ; substrate oNPG; 50 mM sodium phosphate, pH 6.5, 30 °C; competitive

β-galactosidase LacZ from L. bulgaricus (nontagged), sequence (Q1G9Z4 2-1008): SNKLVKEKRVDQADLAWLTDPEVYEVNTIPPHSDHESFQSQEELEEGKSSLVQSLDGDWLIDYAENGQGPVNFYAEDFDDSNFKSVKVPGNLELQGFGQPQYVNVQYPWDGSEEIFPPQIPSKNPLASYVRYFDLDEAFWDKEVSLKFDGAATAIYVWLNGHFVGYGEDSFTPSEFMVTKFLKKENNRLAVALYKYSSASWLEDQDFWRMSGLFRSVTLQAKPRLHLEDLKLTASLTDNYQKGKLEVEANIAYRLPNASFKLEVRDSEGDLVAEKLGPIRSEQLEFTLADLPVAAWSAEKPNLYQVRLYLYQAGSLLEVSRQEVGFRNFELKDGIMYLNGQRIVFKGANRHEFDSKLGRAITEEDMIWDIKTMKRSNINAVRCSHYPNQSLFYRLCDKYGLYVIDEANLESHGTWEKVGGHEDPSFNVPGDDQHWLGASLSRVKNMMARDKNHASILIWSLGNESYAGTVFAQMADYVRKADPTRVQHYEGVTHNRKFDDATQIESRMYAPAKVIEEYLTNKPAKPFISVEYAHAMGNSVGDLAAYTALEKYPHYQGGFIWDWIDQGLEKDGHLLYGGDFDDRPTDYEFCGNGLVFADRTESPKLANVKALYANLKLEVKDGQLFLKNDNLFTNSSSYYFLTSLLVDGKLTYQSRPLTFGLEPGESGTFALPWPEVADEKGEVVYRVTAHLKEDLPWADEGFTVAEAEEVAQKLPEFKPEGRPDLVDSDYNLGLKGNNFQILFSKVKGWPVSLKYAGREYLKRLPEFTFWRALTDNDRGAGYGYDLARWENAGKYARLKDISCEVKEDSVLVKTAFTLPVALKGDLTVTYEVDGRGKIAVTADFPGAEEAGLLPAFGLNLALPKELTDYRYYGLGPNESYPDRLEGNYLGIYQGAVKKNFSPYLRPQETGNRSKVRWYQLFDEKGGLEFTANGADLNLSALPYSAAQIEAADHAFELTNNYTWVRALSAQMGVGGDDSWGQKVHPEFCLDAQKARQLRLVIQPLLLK

Ki: 9.52 ± 1.54 mM
SMILES: OC[C@H]1OC(O)[C@H](O)[C@@H](O)[C@H]1O (stereo partly drawn) [D-galactose]
